Source: patent publication US11254706B2, “Peptide and its derivatives capable of inhibiting replication of hepatitis V virus in human adipose-derived stem cells and hepatocytes” (Inno Bio-Drug Development Limited, priority 2015, dated 2022)
Ends that are not written are not given here.

Assays:
[1] = tested on: serum-borne HCV (genotype 1b); experiment: Replication of serum-borne HCV in hADSC (qRT-PCR of 5′-UTR); type: cell-based; conditions: p5 hADSC, peptide 1, 10 and 100 μg/ml (control peptide 100 μg/ml) added 1 h before HCV(+) serum genotype 1b, day 21 post-infection; for viral (5′-UTR) copy numbers in the supernatant: FIG. 1A; for viral (5′-UTR) copy numbers in cell lysates: FIG. 1B
Description: FIG. 1. […] Data are expressed as mean±SD from 3 experiments. […] Data are expressed as mean±SD from 3 experiments.
We next examined the effect of a peptide composed of 14 amino acids DEAQETAVSSHEQD (SEQ ID NO: 1) (designated as DEA), and its derivatives QETAVSSHEQD (SEQ ID NO: 3) (designated as QET) and DEAQETAVSSHEQ (SEQ ID NO: 2) (designated DEA-Q) as prepared in Example 1, in the replication of serum-borne HCV in hADSC and in human primary hepatocytes. […] (SEQ ID NO: 4)^10. […] In contrast, pretreatment with control peptide had no effects.

HCVser (genotype 1b) = conditions: for HCV copy numbers: at some concentrations (such as 10 and 100 μg/ml); for HCVser replication in human hepatocytes (cellular 5′-UTR RNA): pretreatment 1 h before HCVser-1b, five days post-infection, FIG. 1C
Experimental: FIG. 1. […] (A and B) Concentrations of 1, 10 and 100 μg/ml of DEA, DEA-Q and QET peptides were added into the culture of p5 hADSC for 1 h before exposure to HCV(+) serum (genotype 1b). HLA-A11 restricted, Epstein-Barr virus-specific peptide epitope […] was used as a control (irrelevant) peptide. On day 21 post-infection, the 5′-UTR copy numbers in the supernatant (A) and cell lysates (B) were quantified by qRT-PCR. Data are expressed as mean±SD from 3 experiments. (C) Concentrations of 1, 10 and 100 μg/ml of DEA, DEA-Q and QET peptides were added into the culture of primary human hepatocytes 1 h before exposure to HCVser (genotype 1b). Five days post-infection, the cellular RNAs were extracted for RT-PCR of 5′-UTR. Data are expressed as mean±SD from 3 experiments.
Human hepatocytes were isolated from the non-tumoural part away from the lesion, as described^11. Hepatocytes were left for 3 days to allow attachment onto plastic wells, and subsequently exposed to the HCVser-1b with or without pretreatment with control peptide, DEA, DEA-Q or QET peptide. Five days post-infection, the cellular RNAs were extracted for RT-PCR of 5′-UTR.

Substance	viral (5′-UTR) copy numbers in the supernatant [1]	viral (5′-UTR) copy numbers in cell lysates [1]	HCV copy numbers (HCVser (genotype 1b))	HCVser replication in human hepatocytes (cellular 5′-UTR RNA) (HCVser (genotype 1b))
CSSCSSCPLSK (HLA-A11 restricted, Epstein-Barr virus-specific peptide epitope) [control peptide, reference compound]	no effects	no effects		
DEAQETAVSSHEQ-OH [DEA-Q, DEAQETAVSSHEQ]	significantly reduced	significantly reduced	under detection limit	significantly inhibited
DEAQETAVSSHEQD-OH [DEA, DEAQETAVSSHEQD]	significantly reduced	significantly reduced	under detection limit	significantly inhibited
QETAVSSHEQD-OH [QET, QETAVSSHEQD]	significantly reduced	significantly reduced	under detection limit	significantly inhibited
